Results reported in ChEMBL document CHEMBL4014331, “Design and Synthesis of Soluble and Cell-Permeable PI3Kδ Inhibitors for Long-Acting Inhaled Administration” (J Med Chem, 2017).

Tests used:
[1] = biological target: PI3K p110 beta/p85 alpha (Homo sapiens, UniProt P42338); test: Inhibition of recombinant human His6-tagged PI3K p110beta/p85alpha using DiC8-PIP2 as substrate preincubated for 15 mins followed by substrate addition measured after 60 mins by ADP-Glo assay; format: protein-complex assay
Chain of PI3K p110 beta/p85 alpha (P27986 whole entry): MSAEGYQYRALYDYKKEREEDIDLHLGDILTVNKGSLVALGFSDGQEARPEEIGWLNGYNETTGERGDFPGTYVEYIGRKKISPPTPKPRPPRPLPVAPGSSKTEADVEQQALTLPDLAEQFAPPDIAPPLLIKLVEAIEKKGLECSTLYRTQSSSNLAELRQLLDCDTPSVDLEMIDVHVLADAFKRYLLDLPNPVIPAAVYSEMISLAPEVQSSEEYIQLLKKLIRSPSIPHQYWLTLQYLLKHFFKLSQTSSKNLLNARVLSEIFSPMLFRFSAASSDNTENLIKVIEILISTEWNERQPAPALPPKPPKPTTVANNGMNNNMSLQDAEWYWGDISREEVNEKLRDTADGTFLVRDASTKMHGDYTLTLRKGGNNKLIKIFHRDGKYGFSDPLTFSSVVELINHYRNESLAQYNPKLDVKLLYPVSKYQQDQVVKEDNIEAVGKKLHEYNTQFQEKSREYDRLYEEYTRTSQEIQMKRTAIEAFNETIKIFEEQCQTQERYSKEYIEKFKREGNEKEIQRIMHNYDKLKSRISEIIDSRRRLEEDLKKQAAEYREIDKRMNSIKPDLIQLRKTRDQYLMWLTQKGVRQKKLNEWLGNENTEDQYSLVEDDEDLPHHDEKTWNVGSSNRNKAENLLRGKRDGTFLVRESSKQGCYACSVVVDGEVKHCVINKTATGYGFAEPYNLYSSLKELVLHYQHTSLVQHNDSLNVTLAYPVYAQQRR
Chain of PI3K p110 beta/p85 alpha (P42338 whole entry): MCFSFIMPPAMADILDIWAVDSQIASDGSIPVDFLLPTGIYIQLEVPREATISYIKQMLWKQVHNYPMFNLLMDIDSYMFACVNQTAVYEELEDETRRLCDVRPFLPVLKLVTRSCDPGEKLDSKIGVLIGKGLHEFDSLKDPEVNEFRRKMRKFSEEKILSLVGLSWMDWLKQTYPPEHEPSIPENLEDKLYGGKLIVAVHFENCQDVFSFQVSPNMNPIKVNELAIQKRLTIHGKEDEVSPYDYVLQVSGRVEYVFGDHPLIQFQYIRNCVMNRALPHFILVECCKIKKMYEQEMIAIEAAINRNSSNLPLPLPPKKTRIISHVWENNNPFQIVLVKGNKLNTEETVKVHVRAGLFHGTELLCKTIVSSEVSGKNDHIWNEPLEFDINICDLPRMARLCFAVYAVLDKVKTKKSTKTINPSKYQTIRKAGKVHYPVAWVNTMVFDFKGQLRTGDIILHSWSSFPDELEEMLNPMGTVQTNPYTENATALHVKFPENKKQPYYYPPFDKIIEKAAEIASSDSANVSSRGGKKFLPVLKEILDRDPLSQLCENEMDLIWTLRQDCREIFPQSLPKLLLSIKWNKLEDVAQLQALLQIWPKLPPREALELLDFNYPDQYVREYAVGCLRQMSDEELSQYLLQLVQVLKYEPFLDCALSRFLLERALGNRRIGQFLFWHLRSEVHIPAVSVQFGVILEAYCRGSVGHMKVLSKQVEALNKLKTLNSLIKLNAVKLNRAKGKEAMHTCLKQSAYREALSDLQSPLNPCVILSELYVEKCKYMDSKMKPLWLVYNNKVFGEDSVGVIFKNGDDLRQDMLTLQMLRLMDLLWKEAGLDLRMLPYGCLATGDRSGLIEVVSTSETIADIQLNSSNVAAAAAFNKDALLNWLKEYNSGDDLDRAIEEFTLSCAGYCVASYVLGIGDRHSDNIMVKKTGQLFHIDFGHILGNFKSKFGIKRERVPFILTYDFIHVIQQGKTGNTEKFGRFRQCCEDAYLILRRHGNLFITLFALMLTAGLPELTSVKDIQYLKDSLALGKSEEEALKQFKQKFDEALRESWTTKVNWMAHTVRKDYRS

[2] = Oral bioavailability in rat; format: ADME, organism-based; conditions: in vivo
[3] = Volume of distribution at steady state in iv or po dosed rat; format: ADME, organism-based; conditions: in vivo, read-out: Vdss
[4] = biological target: PI3-kinase p110-alpha/p85-alpha (Homo sapiens, UniProt P42336); test: Inhibition of recombinant human His6-tagged PI3K p110alpha/p85alpha using DiC8-PIP2 as substrate preincubated for 15 mins followed by substrate addition measured after 60 mins by ADP-Glo assay; format: protein-complex assay
Chain of PI3-kinase p110-alpha/p85-alpha (P27986 whole entry, canonical isoform): as the sequence (P27986 whole entry) above
Chain of PI3-kinase p110-alpha/p85-alpha (P42336 whole entry, canonical isoform): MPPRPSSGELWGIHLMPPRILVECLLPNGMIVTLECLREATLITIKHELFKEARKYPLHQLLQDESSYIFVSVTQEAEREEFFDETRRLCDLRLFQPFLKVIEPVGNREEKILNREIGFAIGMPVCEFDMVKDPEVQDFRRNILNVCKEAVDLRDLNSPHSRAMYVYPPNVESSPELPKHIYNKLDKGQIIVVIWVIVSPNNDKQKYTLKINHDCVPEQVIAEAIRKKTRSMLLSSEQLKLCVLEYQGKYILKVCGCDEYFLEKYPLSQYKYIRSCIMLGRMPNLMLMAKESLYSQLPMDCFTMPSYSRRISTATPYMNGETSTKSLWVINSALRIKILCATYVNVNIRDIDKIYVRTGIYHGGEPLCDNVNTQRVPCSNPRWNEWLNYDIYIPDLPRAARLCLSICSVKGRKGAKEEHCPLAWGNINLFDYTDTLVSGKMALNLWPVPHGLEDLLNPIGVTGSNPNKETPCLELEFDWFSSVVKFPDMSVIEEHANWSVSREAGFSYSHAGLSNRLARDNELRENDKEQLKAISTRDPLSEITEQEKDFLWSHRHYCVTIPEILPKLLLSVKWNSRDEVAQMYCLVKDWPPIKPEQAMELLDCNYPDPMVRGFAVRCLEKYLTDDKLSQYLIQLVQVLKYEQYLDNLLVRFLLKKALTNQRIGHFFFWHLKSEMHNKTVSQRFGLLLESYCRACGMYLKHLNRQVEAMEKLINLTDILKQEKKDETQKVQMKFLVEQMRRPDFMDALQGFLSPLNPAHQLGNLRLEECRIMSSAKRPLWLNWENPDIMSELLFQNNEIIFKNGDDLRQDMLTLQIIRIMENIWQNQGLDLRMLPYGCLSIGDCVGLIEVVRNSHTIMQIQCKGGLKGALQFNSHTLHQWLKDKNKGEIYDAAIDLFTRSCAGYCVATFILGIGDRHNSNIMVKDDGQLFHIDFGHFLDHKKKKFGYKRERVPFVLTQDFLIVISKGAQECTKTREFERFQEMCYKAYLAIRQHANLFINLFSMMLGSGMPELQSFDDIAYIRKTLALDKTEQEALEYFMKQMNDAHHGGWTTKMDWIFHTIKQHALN

[5] = biological target: T1, Phosphatidylinositol 4,5-bisphosphate 3-kinase catalytic subunit delta isoform (Homo sapiens, UniProt O00329); test: Inhibition of PI3Kdelta in human JeKo1 cells assessed as reduction in Akt phosphorylation at Ser473 residue preincubated for 60 mins followed by Anti-IgM stimulation for 10 mins by TR-FRET assay; format: cell-based
T1 sequence (O00329 whole entry): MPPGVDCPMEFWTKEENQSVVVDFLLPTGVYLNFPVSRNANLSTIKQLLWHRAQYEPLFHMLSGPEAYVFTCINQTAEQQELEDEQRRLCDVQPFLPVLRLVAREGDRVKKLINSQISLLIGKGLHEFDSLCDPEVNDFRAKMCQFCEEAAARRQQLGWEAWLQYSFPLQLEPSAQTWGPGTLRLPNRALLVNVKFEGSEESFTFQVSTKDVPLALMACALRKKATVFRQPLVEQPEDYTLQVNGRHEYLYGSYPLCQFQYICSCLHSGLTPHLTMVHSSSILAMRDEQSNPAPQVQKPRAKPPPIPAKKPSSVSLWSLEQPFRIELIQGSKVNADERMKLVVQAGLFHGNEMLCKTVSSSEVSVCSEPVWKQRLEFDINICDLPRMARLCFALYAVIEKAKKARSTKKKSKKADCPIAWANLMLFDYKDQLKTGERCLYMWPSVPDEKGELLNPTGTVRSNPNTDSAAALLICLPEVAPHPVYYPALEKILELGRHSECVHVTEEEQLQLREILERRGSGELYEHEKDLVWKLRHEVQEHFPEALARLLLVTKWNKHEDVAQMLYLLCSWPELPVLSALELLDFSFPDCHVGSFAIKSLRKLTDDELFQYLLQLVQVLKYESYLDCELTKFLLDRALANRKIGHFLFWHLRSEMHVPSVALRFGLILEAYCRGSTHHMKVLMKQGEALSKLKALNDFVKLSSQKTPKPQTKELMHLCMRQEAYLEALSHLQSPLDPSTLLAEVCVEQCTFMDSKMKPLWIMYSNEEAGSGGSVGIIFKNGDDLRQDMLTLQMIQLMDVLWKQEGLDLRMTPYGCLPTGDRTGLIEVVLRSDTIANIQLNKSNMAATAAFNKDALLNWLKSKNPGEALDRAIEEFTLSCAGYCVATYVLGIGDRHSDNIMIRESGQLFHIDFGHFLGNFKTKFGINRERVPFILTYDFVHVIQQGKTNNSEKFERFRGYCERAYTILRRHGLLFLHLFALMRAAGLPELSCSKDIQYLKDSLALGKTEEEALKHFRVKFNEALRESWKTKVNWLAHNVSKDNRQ

[6] = biological target: PI3-kinase p110-delta/p85-alpha (Homo sapiens, UniProt O00329); test: Inhibition of recombinant human His6-tagged PI3K p110delta/p85alpha using DiC8-PIP2 as substrate preincubated for 15 mins followed by substrate addition measured after 60 mins by ADP-Glo assay; format: protein-complex assay
Chain of PI3-kinase p110-delta/p85-alpha (P27986 whole entry, one chain of several): as the sequence (P27986 whole entry) above

[7] = Dissociation constant, acidic pKa of compound; format: physicochemical
[8] = Half life in iv or po dosed rat; format: ADME, organism-based; conditions: in vivo
[9] = biological target: Phosphatidylinositol 4,5-bisphosphate 3-kinase catalytic subunit gamma isoform (Homo sapiens, UniProt P48736); test: Inhibition of recombinant human His6-tagged PI3Kgamma (144 to 1102 residues) using DiC8-PIP2 as substrate preincubated for 15 mins followed by substrate addition measured after 60 mins by ADP-Glo assay
Chain of Phosphatidylinositol 4,5-bisphosphate 3-kinase catalytic subunit gamma isoform (P48736 whole entry, the tested form may be a part, canonical isoform): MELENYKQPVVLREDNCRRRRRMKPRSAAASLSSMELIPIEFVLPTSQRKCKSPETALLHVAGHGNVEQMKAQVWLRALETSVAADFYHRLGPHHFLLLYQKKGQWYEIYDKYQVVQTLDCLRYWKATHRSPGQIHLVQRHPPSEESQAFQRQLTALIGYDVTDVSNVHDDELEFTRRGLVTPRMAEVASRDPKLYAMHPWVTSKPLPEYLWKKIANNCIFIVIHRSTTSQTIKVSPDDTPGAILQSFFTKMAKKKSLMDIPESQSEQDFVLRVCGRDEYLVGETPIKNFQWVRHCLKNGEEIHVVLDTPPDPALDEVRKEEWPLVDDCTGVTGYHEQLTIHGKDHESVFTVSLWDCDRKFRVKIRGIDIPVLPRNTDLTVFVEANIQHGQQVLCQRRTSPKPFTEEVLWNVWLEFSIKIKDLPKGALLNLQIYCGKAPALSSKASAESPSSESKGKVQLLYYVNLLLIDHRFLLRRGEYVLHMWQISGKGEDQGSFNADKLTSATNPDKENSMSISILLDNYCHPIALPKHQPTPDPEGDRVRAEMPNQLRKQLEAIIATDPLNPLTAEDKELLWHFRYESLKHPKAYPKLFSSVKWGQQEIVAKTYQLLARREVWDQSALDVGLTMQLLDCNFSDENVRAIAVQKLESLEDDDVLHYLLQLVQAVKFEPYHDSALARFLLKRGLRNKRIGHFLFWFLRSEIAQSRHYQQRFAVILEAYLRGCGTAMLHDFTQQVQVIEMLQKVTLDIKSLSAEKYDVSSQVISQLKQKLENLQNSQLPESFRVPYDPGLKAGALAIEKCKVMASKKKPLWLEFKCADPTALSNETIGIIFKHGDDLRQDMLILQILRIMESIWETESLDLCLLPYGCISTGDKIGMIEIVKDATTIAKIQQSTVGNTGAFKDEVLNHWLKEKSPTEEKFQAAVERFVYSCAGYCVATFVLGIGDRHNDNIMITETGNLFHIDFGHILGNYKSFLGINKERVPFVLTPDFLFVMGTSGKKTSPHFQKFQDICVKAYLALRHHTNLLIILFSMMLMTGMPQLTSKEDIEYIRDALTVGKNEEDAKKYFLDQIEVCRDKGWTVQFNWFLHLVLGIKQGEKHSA

[10] = Terminal half life in it dosed rat lung by LC-MS/MS analysis; format: ADME, organism-based; conditions: inhaled or intranasal, read-out: beta t1/2 (converted)
[11] = Dissociation constant, basic pKa of compound; format: physicochemical
[12] = biological target: hERG (KCNH2) (Homo sapiens, UniProt Q12809); test: Inhibition of human ERG at 11 uM relative to control
[13] = Metabolic stability in it dosed rat lungs assessed as compound remaining at 24 hrs post dose by LC-MS/MS analysis; format: ADME, organism-based; conditions: lung, inhaled or intranasal, read-out: Stability
[14] = Lipophilicity, log D of the compound; format: physicochemical; conditions: octanol/water
[15] = Clearance in iv dosed rat; format: ADME, organism-based; conditions: in vivo
[16] = system: Mus musculus; test: In vivo inhibition of PI3Kdelta in ovalbumin-sensitized OT-2 transgenic C57BL/6-Tg-(Tcratcrb)425Cbn/Crl mouse assessed as reduction in S6RP phosphorylation at Ser235/236 residues in bronchoalveolar lung lavage administered […] 18 hrs prior to anti-CD3 stimulation measured after 6 hrs; format: functional, organism-based

In the case of `Cc1csc2cc([C@H](C)Nc3ncnc(N)c3C#N)c(-c3cccc(CN4CCC(N(C)CC(C)C)CC4)c3)c(=O)n12`, the IC50 [1] is reported as 79.4 nM, the bioavailability [2] is reported as less than 1% and the Vd [3] is reported as 88 L/kg. For the same compound, the IC50 [4] was no less than 631 nM, the IC50 [5] was 1.26 nM and the IC50 [6] was 0.631 nM. It also gave a pKa [7] of 9.7, a half-life [8] of 11 h and an IC50 [9] of no less than 200 nM. The half-life [10] was 9.9 h, the pKa [11] was 6.8 and the inhibition at 11 µM [12] was less than 20%. For the same compound, the remaining at 24 h [13] was 2.8%, the logD [14] was 1.7 and the clearance [15] was 150 mL/min/kg. For the same compound, the inhibition [16] was “Dose-dependent effect”.
`Cc1csc2cc([C@H](C)Nc3ncnc(N)c3C#N)c(-c3cccc(CN4CCC(N(C)C)CC4)c3)c(=O)n12` showed an IC50 [1] of 63.1 nM, a bioavailability [2] of less than 1% and a Vd [3] of 12 L/kg. For the same compound, the IC50 [4] was no less than 631 nM, the IC50 [5] was 10 nM and the IC50 [6] was 0.501 nM. The pKa [7] was 9.5, the half-life [8] was 12 h and the IC50 [9] was no less than 200 nM. The half-life [10] was 23.2 h, the pKa [11] was 6.5 and the inhibition at 11 µM [12] was less than 20%. The remaining at 24 h [13] was 4.8%, the logD [14] was 0.5 and the clearance [15] was 57 mL/min/kg. The inhibition [16] was “Dose-dependent effect”.
